Reference: the NIST ThermoML archive (doi:10.1016/j.jct.2016.02.009)
± gives the expanded uncertainty stated by the source.

Experiment: molar heat capacity at constant pressure
Conditions: 101.33 kPa, Small (less than 1 g) adiabatic calorimetry

For `CCCCCCCCCCn1cc[n+](C)c1.O=S(=O)([N-]S(=O)(=O)C(F)(F)F)C(F)(F)F`, the “molar heat capacity at constant pressure” value (4.82 K, Crystal 2) was 3.08 ± 0.09 J/K/mol, the “molar heat capacity at constant pressure” value (4.98 K, Metastable crystal) was 3.38 ± 0.1 J/K/mol and the “molar heat capacity at constant pressure” value (5 K, Crystal 2) was 3.41 ± 0.11 J/K/mol. For the same molecule, the “molar heat capacity at constant pressure” value (5 K, Metastable crystal) was 3.41 ± 0.11 J/K/mol, the “molar heat capacity at constant pressure” value (5.15 K, Crystal 2) was 3.69 ± 0.1 J/K/mol and the “molar heat capacity at constant pressure” value (5.32 K, Metastable crystal) was 4.05 ± 0.11 J/K/mol. The “molar heat capacity at constant pressure” value (5.49 K, Crystal 2) was 4.38 ± 0.12 J/K/mol, the “molar heat capacity at constant pressure” value (5.67 K, Metastable crystal) was 4.81 ± 0.13 J/K/mol and the “molar heat capacity at constant pressure” value (5.85 K, Crystal 2) was 5.15 ± 0.14 J/K/mol. The “molar heat capacity at constant pressure” value (6.03 K, Metastable crystal) was 5.65 ± 0.15 J/K/mol, the “molar heat capacity at constant pressure” value (6.28 K, Crystal 2) was 6.16 ± 0.16 J/K/mol and the “molar heat capacity at constant pressure” value (6.46 K, Metastable crystal) was 6.76 ± 0.17 J/K/mol. For the same molecule, the “molar heat capacity at constant pressure” value (6.8 K, Crystal 2) was 7.44 ± 0.19 J/K/mol, the “molar heat capacity at constant pressure” value (6.97 K, Metastable crystal) was 8.15 ± 0.21 J/K/mol and the “molar heat capacity at constant pressure” value (7.32 K, Crystal 2) was 8.83 ± 0.22 J/K/mol. For the same molecule, the “molar heat capacity at constant pressure” value (7.49 K, Metastable crystal) was 9.71 ± 0.24 J/K/mol, the “molar heat capacity at constant pressure” value (7.85 K, Crystal 2) was 10.34 ± 0.25 J/K/mol and the “molar heat capacity at constant pressure” value (8.02 K, Metastable crystal) was 11.34 ± 0.28 J/K/mol. For the same molecule, the “molar heat capacity at constant pressure” value (8.39 K, Crystal 2) was 11.95 ± 0.29 J/K/mol, the “molar heat capacity at constant pressure” value (8.55 K, Metastable crystal) was 13.1 ± 0.32 J/K/mol and the “molar heat capacity at constant pressure” value (8.92 K, Crystal 2) was 13.66 ± 0.33 J/K/mol. For the same molecule, the “molar heat capacity at constant pressure” value (9.09 K, Metastable crystal) was 14.97 ± 0.36 J/K/mol, the “molar heat capacity at constant pressure” value (9.47 K, Crystal 2) was 15.45 ± 0.37 J/K/mol and the “molar heat capacity at constant pressure” value (9.62 K, Metastable crystal) was 16.9 ± 0.4 J/K/mol. The “molar heat capacity at constant pressure” value (10 K, Crystal 2) was 17.29 ± 0.33 J/K/mol, the “molar heat capacity at constant pressure” value (10 K, Metastable crystal) was 18.31 ± 0.36 J/K/mol and the “molar heat capacity at constant pressure” value (10.01 K, Crystal 2) was 17.32 ± 0.28 J/K/mol. For the same molecule, the “molar heat capacity at constant pressure” value (10.16 K, Metastable crystal) was 18.93 ± 0.31 J/K/mol, the “molar heat capacity at constant pressure” value (10.63 K, Crystal 2) was 19.54 ± 0.31 J/K/mol and the “molar heat capacity at constant pressure” value (10.78 K, Metastable crystal) was 21.32 ± 0.34 J/K/mol. The “molar heat capacity at constant pressure” value (11.31 K, Crystal 2) was 22.05 ± 0.35 J/K/mol, the “molar heat capacity at constant pressure” value (11.46 K, Metastable crystal) was 24.01 ± 0.37 J/K/mol and the “molar heat capacity at constant pressure” value (12 K, Crystal 2) was 24.68 ± 0.38 J/K/mol. For the same molecule, the “molar heat capacity at constant pressure” value (12.15 K, Metastable crystal) was 26.84 ± 0.41 J/K/mol, the “molar heat capacity at constant pressure” value (12.7 K, Crystal 2) was 27.41 ± 0.42 J/K/mol and the “molar heat capacity at constant pressure” value (12.85 K, Metastable crystal) was 29.77 ± 0.45 J/K/mol. The “molar heat capacity at constant pressure” value (13.4 K, Crystal 2) was 30.22 ± 0.45 J/K/mol, the “molar heat capacity at constant pressure” value (13.56 K, Metastable crystal) was 32.75 ± 0.49 J/K/mol and the “molar heat capacity at constant pressure” value (14.1 K, Crystal 2) was 33.14 ± 0.49 J/K/mol. For the same molecule, the “molar heat capacity at constant pressure” value (14.27 K, Metastable crystal) was 35.9 ± 0.53 J/K/mol, the “molar heat capacity at constant pressure” value (14.81 K, Crystal 2) was 36.15 ± 0.53 J/K/mol and the “molar heat capacity at constant pressure” value (14.99 K, Metastable crystal) was 39.03 ± 0.57 J/K/mol. The “molar heat capacity at constant pressure” value (15 K, Crystal 2) was 36.94 ± 0.52 J/K/mol, the “molar heat capacity at constant pressure” value (15 K, Metastable crystal) was 39.12 ± 0.55 J/K/mol and the “molar heat capacity at constant pressure” value (15.63 K, Crystal 2) was 39.64 ± 0.57 J/K/mol. For the same molecule, the “molar heat capacity at constant pressure” value (15.81 K, Metastable crystal) was 42.67 ± 0.61 J/K/mol, the “molar heat capacity at constant pressure” value (16.56 K, Crystal 2) was 43.69 ± 0.62 J/K/mol and the “molar heat capacity at constant pressure” value (16.75 K, Metastable crystal) was 46.88 ± 0.66 J/K/mol. For the same molecule, the “molar heat capacity at constant pressure” value (17.51 K, Crystal 2) was 47.81 ± 0.66 J/K/mol, the “molar heat capacity at constant pressure” value (17.7 K, Metastable crystal) was 51.06 ± 0.71 J/K/mol and the “molar heat capacity at constant pressure” value (18.46 K, Crystal 2) was 51.81 ± 0.71 J/K/mol. The “molar heat capacity at constant pressure” value (18.65 K, Metastable crystal) was 55.14 ± 0.75 J/K/mol, the “molar heat capacity at constant pressure” value (19.4 K, Crystal 2) was 55.79 ± 0.75 J/K/mol and the “molar heat capacity at constant pressure” value (19.6 K, Metastable crystal) was 59.21 ± 0.79 J/K/mol. For the same molecule, the “molar heat capacity at constant pressure” value (20 K, Crystal 2) was 58.37 ± 0.57 J/K/mol, the “molar heat capacity at constant pressure” value (20 K, Metastable crystal) was 61 ± 0.59 J/K/mol and the “molar heat capacity at constant pressure” value (20.36 K, Crystal 2) was 59.87 ± 0.58 J/K/mol. The “molar heat capacity at constant pressure” value (20.85 K, Metastable crystal) was 64.6 ± 0.61 J/K/mol, the “molar heat capacity at constant pressure” value (21.61 K, Crystal 2) was 65.16 ± 0.6 J/K/mol and the “molar heat capacity at constant pressure” value (22.41 K, Metastable crystal) was 71.3 ± 0.64 J/K/mol. For the same molecule, the “molar heat capacity at constant pressure” value (23.17 K, Crystal 2) was 71.8 ± 0.63 J/K/mol, the “molar heat capacity at constant pressure” value (23.98 K, Metastable crystal) was 78 ± 0.67 J/K/mol and the “molar heat capacity at constant pressure” value (24.75 K, Crystal 2) was 78.35 ± 0.66 J/K/mol. The “molar heat capacity at constant pressure” value (25 K, Crystal 2) was 79.32 ± 0.66 J/K/mol, the “molar heat capacity at constant pressure” value (25 K, Metastable crystal) was 82.14 ± 0.69 J/K/mol and the “molar heat capacity at constant pressure” value (25.56 K, Metastable crystal) was 84.49 ± 0.69 J/K/mol. The “molar heat capacity at constant pressure” value (26.31 K, Crystal 2) was 84.64 ± 0.68 J/K/mol, the “molar heat capacity at constant pressure” value (27.07 K, Metastable crystal) was 90.53 ± 0.71 J/K/mol and the “molar heat capacity at constant pressure” value (27.89 K, Crystal 2) was 90.84 ± 0.69 J/K/mol. For the same molecule, the “molar heat capacity at constant pressure” value (28.66 K, Metastable crystal) was 96.83 ± 0.72 J/K/mol, the “molar heat capacity at constant pressure” value (29.55 K, Crystal 2) was 97.23 ± 0.7 J/K/mol and the “molar heat capacity at constant pressure” value (30 K, Crystal 2) was 98.9 ± 0.59 J/K/mol. The “molar heat capacity at constant pressure” value (30 K, Metastable crystal) was 102 ± 0.6 J/K/mol, the “molar heat capacity at constant pressure” value (30.24 K, Metastable crystal) was 102.9 ± 0.6 J/K/mol and the “molar heat capacity at constant pressure” value (31.4 K, Crystal 2) was 104 ± 0.6 J/K/mol. The “molar heat capacity at constant pressure” value (31.98 K, Metastable crystal) was 109.5 ± 0.6 J/K/mol, the “molar heat capacity at constant pressure” value (33.31 K, Crystal 2) was 110.8 ± 0.6 J/K/mol and the “molar heat capacity at constant pressure” value (33.9 K, Metastable crystal) was 116.3 ± 0.7 J/K/mol. The “molar heat capacity at constant pressure” value (35 K, Crystal 2) was 116.6 ± 0.7 J/K/mol, the “molar heat capacity at constant pressure” value (35 K, Metastable crystal) was 120.1 ± 0.7 J/K/mol and the “molar heat capacity at constant pressure” value (35.22 K, Crystal 2) was 117.3 ± 0.7 J/K/mol. The “molar heat capacity at constant pressure” value (35.82 K, Metastable crystal) was 123 ± 0.7 J/K/mol, the “molar heat capacity at constant pressure” value (37.13 K, Crystal 2) was 123.7 ± 0.7 J/K/mol and the “molar heat capacity at constant pressure” value (37.74 K, Metastable crystal) was 129.4 ± 0.7 J/K/mol. The “molar heat capacity at constant pressure” value (39.05 K, Crystal 2) was 129.9 ± 0.7 J/K/mol, the “molar heat capacity at constant pressure” value (39.66 K, Metastable crystal) was 135.6 ± 0.8 J/K/mol and the “molar heat capacity at constant pressure” value (40 K, Crystal 2) was 132.9 ± 0.7 J/K/mol. For the same molecule, the “molar heat capacity at constant pressure” value (40 K, Metastable crystal) was 136.7 ± 0.8 J/K/mol, the “molar heat capacity at constant pressure” value (41.06 K, Crystal 2) was 136.2 ± 0.8 J/K/mol and the “molar heat capacity at constant pressure” value (41.68 K, Metastable crystal) was 142 ± 0.8 J/K/mol. For the same molecule, the “molar heat capacity at constant pressure” value (43.16 K, Crystal 2) was 142.8 ± 0.8 J/K/mol, the “molar heat capacity at constant pressure” value (43.79 K, Metastable crystal) was 148.7 ± 0.8 J/K/mol and the “molar heat capacity at constant pressure” value (45 K, Metastable crystal) was 152.5 ± 0.9 J/K/mol. The “molar heat capacity at constant pressure” value (45.27 K, Crystal 2) was 149.2 ± 0.8 J/K/mol, the “molar heat capacity at constant pressure” value (45.9 K, Metastable crystal) was 155.3 ± 0.9 J/K/mol and the “molar heat capacity at constant pressure” value (47.38 K, Crystal 2) was 155.7 ± 0.9 J/K/mol. For the same molecule, the “molar heat capacity at constant pressure” value (48.02 K, Metastable crystal) was 161.8 ± 0.9 J/K/mol, the “molar heat capacity at constant pressure” value (49.5 K, Crystal 2) was 161.9 ± 0.9 J/K/mol and the “molar heat capacity at constant pressure” value (50 K, Crystal 2) was 163.2 ± 1 J/K/mol. The “molar heat capacity at constant pressure” value (50 K, Metastable crystal) was 167.6 ± 1 J/K/mol, the “molar heat capacity at constant pressure” value (50.15 K, Metastable crystal) was 168 ± 0.9 J/K/mol and the “molar heat capacity at constant pressure” value (51.63 K, Crystal 2) was 168 ± 0.9 J/K/mol. The “molar heat capacity at constant pressure” value (52.27 K, Metastable crystal) was 174.1 ± 1 J/K/mol, the “molar heat capacity at constant pressure” value (53.75 K, Crystal 2) was 173.9 ± 1 J/K/mol and the “molar heat capacity at constant pressure” value (54.4 K, Metastable crystal) was 180 ± 1 J/K/mol. The “molar heat capacity at constant pressure” value (55.87 K, Crystal 2) was 179.6 ± 1 J/K/mol, the “molar heat capacity at constant pressure” value (56.52 K, Metastable crystal) was 185.7 ± 1 J/K/mol and the “molar heat capacity at constant pressure” value (57.99 K, Crystal 2) was 185.1 ± 1 J/K/mol.
